Measured values from patent publication US20250099485A1, “COMPOSITIONS FOR PROMOTING HAIR GROWTH” (ESTETRA SRL, priority 2021, published 2025).

How the values were obtained:
[1] = system: mouse lymphoma cell line L5178Y TK^+/−; assay: Generation of reactive oxygen species (ROS); assay type: cell-based; details: up to 100 μM, 3 h exposure, vs vehicle control
Method: The objective of the study was to investigate the generation of reactive oxygen species (ROS) induced by the test item, estetrol (E4), in a mouse lymphoma cell line L5178Y TK^+/−.
L5178Y TK^+/− cells in logarithmic phase of growth were plated in black 96 well cell culture plates at 1×10^4 cells in 90 μL of cell culture media. Controls and test item in triplicate were applied to the cells as a 10× concentrate in 10 μL of a 10% ethanol solution in PBS (final concentration of ethanol on plate was 1%). Cells were incubated for 3 hours at 37° C., 5% CO2, and the generation of ROS was evaluated by fluorescence with a ROS reagent: the ROS reagent was freshly prepared by dissolving one ampoule of reagent (50 μg) in 70 μL DMSO and further diluting this with 2.1 mL of pre-warmed PBS. 10 μL of ROS reagent was added to each well and the plate were shaken for 30 seconds in the dark. The plates were incubated approximately at 37° C., 5% CO2 for 1 h 30 min and fluorescence was read on a plate scanner with excitation at 492 nm and emission at 520 nm.

[2] = Tissue distribution of radioactivity by quantitative whole body autoradiography, non-pigmented rats; assay type: in vivo, rat (female Sprague-Dawley); details: female non-pigmented rats; for Concentration of radioactivity in tissue, Skin: Non-pigmented / Tissue: Blood ratio, Skin: Non-pigmented: single oral 15 mg/kg
Method: Times for analysis were: 0.5, 1, 2, 5, 8, 24 and 48 hours.
Distribution of radioactivity in tissues was determined and quantified using the Fuji FLA-5100 fluorescent image analyser and associated Tina and SeeScan software. Tissue concentrations of radioactivity were determined using calibrated autoradiographic microscales produced by GE Healthcare. A standard curve was produced using the microscales from which tissue concentrations of radioactivity were determined (nCi/g). These values were then converted into pg equivalents/g using the specific activity of the dose formulation.
Radioactivity concentrations are also reported as μg equivalents/g.

[3] = Tissue distribution of radioactivity by quantitative whole body autoradiography, partially pigmented rats; details: female partially pigmented rats; for Concentration of radioactivity in tissue, Skin: Non-pigmented / Concentration of radioactivity in tissue, Skin: Pigmented / Tissue: Blood ratio, Skin: Non-pigmented / Tissue: Blood ratio, Skin: Pigmented / Total amount of radioactivity in tissue, Skin (non-pigmented) / Total amount of radioactivity in tissue, Skin (pigmented): single oral 15 mg/kg
Method: Tissue distribution was determined in female rats (partially pigmented and non-pigmented) using [^14C]-estetrol.
A group of six female Lister Hooded rats each received a single oral dose of [^14C]-estetrol. At each selected time (see below) one animal was killed (by overdose of CO2) followed by immediate snap freezing in hexane/solid CO2. The carcasses were retained for examination of the tissue distribution of radioactivity using the technique of quantitative whole body autoradiography (QWBA).
Times for analysis were: (0.5, 8, and 24 hours, 7, 14 and 35 days).
Frozen carcasses were subjected to whole-body autoradiography.
Where concentrations are reported, radioactivity was assumed to be associated with [^14C]-estetrol or any metabolic products derived from [^14C]-estetrol. The specific activities of the dosed test compounds were used for the calculation of concentrations in all cases. Recoveries of radioactivity are reported as percentage of administered radioactivity (% dose). Radioactivity concentrations are also reported as μg equivalents/g.

[4] = system: Normal Human Dermal Fibroblasts (NHDFs); assay: Colonization of acellular area (IBIDI gap closure), fibroblasts; assay type: cell-based; details: 10 ng/ml, both in presence and absence of MMC
Method: The study consists in an in vitro assay aiming to evaluate the properties of E4 and E2 at 4 concentrations each on keratinocytes and fibroblasts. In this assay, the measurement of the colonization of a standard acellular surface generated from a confluent monolayer of cells using a dedicated culture device (IBIDI chamber) is performed. The assay is performed in absence and in presence of a proliferation inhibitor to focus on cell proliferation and migration or on migration only, respectively.
Normal Human foreskin-derived Dermal Fibroblast (NHDFs, ATCC) cells were grown in phenol-free Dulbecco's Modified Eagle Medium (DMEM, ThermoFisher Scientific) supplemented with 10% of Foetal Bovine Serum (FBS, ThermoFisher Scientific), L-glutamine and antibiotics. The cells were maintained in a humidified incubator at 37° C. with a 5% CO2 atmosphere.
Cells were plated in 2-well silicone inserts with a defined cell free gap (IBIDI chambers; IBIDI GmbH, 80209) that was previously inserted on 12-well culture plates. This culture device allows to create a standardized 500 μm±100 μm cell free gap for monitoring cell colonization. 24 h after seeding, when the culture reached high confluency, cells in the insert were treated, or not, with mitomycin C (MMC) at 10 μg/ml during 2 h. After these 2 hours, the insert was removed, and cells were treated with E2 or E4 in presence or not of MMC for additional 2 h. Then, if appropriate, the culture medium was removed and cells were treated with E2 or E4 for 22 h, in absence of MMC.
For the assay, keratinocytes were plated in Epilife medium without HKGS and all the treatments were performed in this medium. Fibroblasts were plated in DMEM medium containing only 2.5% of FBS and the treatments were performed in absence of FBS.
E2 and E4 were applied at 4 concentrations each (10^−7M, 10^−8M, 10^−9M, 10^−10M). In parallel, cells were treated with a positive control (HKGS 1% for human keratinocytes and PDGF-BB at 10 ng/ml for human fibroblasts).
To monitor cell colonization and to evaluate the gap closure rate, pictures of the gap were taken after different times: at time 0 h, corresponding to the beginning of the treatment with E2 or E4 and to the removal of the culture insert, at time 6 h and at time 24 h (corresponding to the end of the treatments with E2 or E4). Pictures were taken with a microscope Zeiss (Axiover 25-10× objective) and with a camera Invenio2EIII (DeltaPix—Lux-Optic). The colonized areas were quantified from the pictures by the use of the WimAsis platform—WimScratch software. For each insert, 3 pictures were taken at each time. As each condition was performed in triplicates, it means a total of 9 pictures per condition and per time point of acquisition

## OO [hydrogen peroxide, reference compound]
[1]
  levels of ROS, positive control: tendency to increase the levels of ROS

## [^14C]-estetrol
[2]; 0.5 hours
  Concentration of radioactivity in tissue, Skin: Non-pigmented: 2.59 microgram equivalents/gram
  Tissue: Blood ratio, Skin: Non-pigmented: 1.05
[2]; 1 hour
  Concentration of radioactivity in tissue, Skin: Non-pigmented: 0.771 microgram equivalents/gram
  Tissue: Blood ratio, Skin: Non-pigmented: 0.99
[2]; 2 hours
  Concentration of radioactivity in tissue, Skin: Non-pigmented: 0.465 microgram equivalents/gram
  Tissue: Blood ratio, Skin: Non-pigmented: 1.72
[2]; 5 hours
  Concentration of radioactivity in tissue, Skin: Non-pigmented: 0.189 microgram equivalents/gram
  Tissue: Blood ratio, Skin: Non-pigmented: 1.66
[2]; 8 hours
  Concentration of radioactivity in tissue, Skin: Non-pigmented: 0.361 microgram equivalents/gram
  Tissue: Blood ratio, Skin: Non-pigmented: 1.77
[2]; 24 hours
  Concentration of radioactivity in tissue, Skin: Non-pigmented: BLQ
[2]; 48 hours
  Concentration of radioactivity in tissue, Skin: Non-pigmented: BLQ
[2]; single oral dose, 0.5 hours
  Concentration of radioactivity in the liver (greatest concentration): 12.5 μg equivalents/g
[3]; 0.5 hours
  Concentration of radioactivity in tissue, Skin: Non-pigmented: 1.89 microgram equivalents/gram
  Concentration of radioactivity in tissue, Skin: Pigmented: 2.85 microgram equivalents/gram
  Tissue: Blood ratio, Skin: Non-pigmented: 0.71
  Tissue: Blood ratio, Skin: Pigmented: 1.07
  Total amount of radioactivity in tissue, Skin (non-pigmented): 1.136 % dose administered/tissue
  Total amount of radioactivity in tissue, Skin (pigmented): 1.714 % dose administered/tissue
[3]; 8 hours
  Concentration of radioactivity in tissue, Skin: Non-pigmented: 0.090 microgram equivalents/gram
  Concentration of radioactivity in tissue, Skin: Pigmented: 0.163 microgram equivalents/gram
  Tissue: Blood ratio, Skin: Non-pigmented: 0.66
  Tissue: Blood ratio, Skin: Pigmented: 1.03
  Total amount of radioactivity in tissue, Skin (non-pigmented): 0.059 % dose administered/tissue
  Total amount of radioactivity in tissue, Skin (pigmented): 0.099 % dose administered/tissue
[3]; 24 hours
  Concentration of radioactivity in tissue, Skin: Non-pigmented: BLQ
  Concentration of radioactivity in tissue, Skin: Pigmented: 0.113 microgram equivalents/gram
  Total amount of radioactivity in tissue, Skin (non-pigmented): <0.041 % dose administered/tissue
  Total amount of radioactivity in tissue, Skin (pigmented): 0.061 % dose administered/tissue
[3]; 7 days
  Concentration of radioactivity in tissue, Skin: Non-pigmented: BLQ
  Concentration of radioactivity in tissue, Skin: Pigmented: BLQ
  Total amount of radioactivity in tissue, Skin (non-pigmented): <0.043 % dose administered/tissue
  Total amount of radioactivity in tissue, Skin (pigmented): <0.043 % dose administered/tissue
[3]; 14 days
  Concentration of radioactivity in tissue, Skin: Non-pigmented: BLQ
  Concentration of radioactivity in tissue, Skin: Pigmented: BLQ
  Total amount of radioactivity in tissue, Skin (non-pigmented): <0.038 % dose administered/tissue
  Total amount of radioactivity in tissue, Skin (pigmented): <0.038 % dose administered/tissue
[3]; 35 days
  Concentration of radioactivity in tissue, Skin: Non-pigmented: BLQ
  Concentration of radioactivity in tissue, Skin: Pigmented: BLQ
  Total amount of radioactivity in tissue, Skin (non-pigmented): <0.041 % dose administered/tissue
  Total amount of radioactivity in tissue, Skin (pigmented): <0.041 % dose administered/tissue
[3]; single oral dose, 0.5 hours
  Concentration of radioactivity in the liver (greatest concentration): 13.7 μg equivalents/g
[3]; single oral dose, 7 days after dosing
  Concentration of radioactivity in the liver: 0.410 μg equivalents/g
[3]; single oral dose, by 24 hours
  Concentration of radioactivity, majority of tissues (BLQ): < 0.076 μg equivalents/g

B1: PDGF-BB: positive control at 10 ng/ml for human fibroblasts (protein, UniProt P01127 82-190, looked up)
Platelet-derived growth …: SLGSLTIAEPAMIAECKTRTEVFEISRRLIDRTNANFLVWPPCVEVQRCSGCCNNRNVQCRPTQVQLRPVQVRKIEIVRKKPIFKKATVTLEDHLACKCETVAAARPVT
[4]
  NHDF colonized area, positive reference: significantly increases the colonized area
